Read-outs that look alike come from different tables or passages of the source.
How the values were obtained:
WNV = WNV CPE protection assay in Vero cells (MTS); format: cell-based, West Nile virus
Method: Antiviral activity of a Compound against WNV is tested in Vero cells by protection of virus induced cytopathic effects (i.e. cytoprotection measured as cell viability, IC50). The effect of a Compound on inhibition of virus induced cytopathic effects is determined using MTS (CellTiter) assay.

[1] = test system: hypoxia-induced VEGF production in HeLa cells; test: cells; format: cell-based, human
Vero cells = details: monkey
Influenza A = test: microbe, parasite or virus in culture; format: cell-based, influenza virus
Caki-1 cells = test: Caki-1 renal cell carcinoma xenograft (VHL-positive), tumor volume; format: in vivo, mice; details: for Tumor size (mean±SD): PO
Method: The Caki-1 cell line expresses the von Hippel-Lindau (VHL) protein which acts as a tumor suppressor by promoting the rapid degradation of HIF-1α (hypoxia-inducible factor 1α) under normoxia. Under hypoxic conditions, HIF-1α is stabilized and activated by the inability of VHL to act resulting in increased transcription of VEGF that is responsible for the high vascularization of RCC (see Turcotte et al, 2003, Zimmer et al, 2004).
(§1) A total of 100 mice were injected, of which 60 were used in the study.
Groups were taken off study when the mean tumor volume in a group was 1300 mm^3 or more. Vehicle-treatment started on Day 0 and continued through Day 35. Compound #10-treatment started on Day 0 and continued through Day 52.
(§2) Tumors were measured twice per week using digital calipers.
[…] The median values were reported.

RSV = RSV CPE protection assay in Vero cells; format: cell-based, respiratory syncytial virus
HCV genotype 1b replicon = test: HCV subgenomic replicon assay, genotype 1b; format: cell-based; details: Hepatitis C virus
Dengue 2 = Dengue 2 CPE protection assay in Vero E6 cells; format: cell-based, dengue virus
[2] = test system: protein expression in RCC lines 786-0, 769-P and A498; test: Western blot of protein expression in panel of RCC lines (786-0, 769-P and A498) (FIG. 8); format: cell-based; details: monotherapy at different μM dose levels; in words
cancer in patients = test: Treatment of individual cancer patients (clinical parameters and tumor markers); format: in vivo, human; details: monotherapy, in words
Method: The arrow symbol represents the timepoint at which docetaxel was reduced to 60 mg/m2.

HSV-1 = HSV-1 CPE protection assay in Vero cells; format: cell-based, herpes simplex virus-1
[3] = 786-O xenograft study: body weight and clinical observations; details: 786-O study, in words
Adenovirus = Adenovirus CPE protection assay in HeLa cells; format: cell-based
MDCK cells = details: dog
786-O cells = test: 786-O renal cell carcinoma xenograft (VHL-negative), tumor volume; format: in vivo, mice; details: for Tumor size (mean±SD): PO
Method: Both sunitinib and rapamycin are used clinically for treatment of renal cancer.
as §1
Groups were taken off study when the mean tumor volume in a group was 1300 mm^3 or more. Vehicle-treatment started on Day 0 and continued through Day 57. Compound #10-treatment started on Day 0 and continued through Day 88.
as §2
The time to progression to reach a tumor volume 1000 mm^3 was calculated for each mouse. The median values were reported.

[4] = Whole-body autoradiography: brain tissue plasma concentration ratios (blood-brain barrier penetration); format: in vivo, rats; details: in words
HeLa cells = details: human
[5] = Caki-1 xenograft study: body weight and clinical observations; format: in vivo, mice; details: Caki-1 study
Text: Body Weight: The mice were weighed once per week.

Parainfluenza = Parainfluenza CPE protection assay in Vero cells; format: cell-based, parainfluenza virus
PV strain Mahoney = test: microbe, parasite or virus in culture; format: cell-based, poliovirus
HCV genotype 2a replicon = test: HCV subgenomic replicon assay, genotype 2a; format: cell-based; details: Hepatitis C virus
Yellow Fever = test: microbe, parasite or virus in culture; format: cell-based, yellow fever virus
MT-2 cells = test: CC50 in MT-2 cells (antiviral assay panel); format: cell-based, human; details: HIV-1 assay line
Vaccinia = test: microbe, parasite or virus in culture; format: cell-based; details: Orthopoxvirus vaccinia, Vero C1008
[6] = human respiratory syncytial virus, Vero

With `COc1ccc([C@H]2c3[nH]c4ccc(Cl)cc4c3CCN2C(=O)Oc2ccc(Cl)cc2)cc1` (racemic) [Compound #10] the IC50 (WNV; West Nile virus, WNV, (+) RNA, Vero, CPE protection) was 67 nM, the IC90 (WNV; West Nile virus, WNV, Vero, CPE protection) was 280 nM and the “Activity against West Nile virus (WNV)” value (WNV; in words) was “potent activity”. The “Inhibition of stress-induced VEGF production (FIG. 1)” value [1] was “inhibit stress-induced VEGF production”, the CC50 (Vero cells) was > 1000 nM and the “Inhibition of influenza virus” value (Influenza A) was “did not exhibit any selective inhibition”. The IC50 (Influenza A; Influenza A virus, MDCK) was > 1000 nM, the IC90 (Influenza A; Influenza A virus, MDCK) was > 1000 nM and the “Median time to reach 1500 mm^3” value (Caki-1 cells) was 39 days. For the same compound, the “Median time for tumors to reach 1000 mm^3” value (Caki-1 cells; Compound #10 10 mg/kg QD PO, sunitinib 75 mg/kg QD PO, rapamycin 15 mg/kg PO) was 39 days, the “Tumor size (mean±SD)” value (Caki-1 cells; Day 35, 10 mg/kg QD) was 866±450 mm^3 and the “Tumors smaller than those in vehicle-treated mice” value (Caki-1 cells; Day 35, Compound #10 10 mg/kg QD PO, sunitinib 75 mg/kg QD PO, rapamycin 15 mg/kg PO) was 44%. The “Tumor size (mean±SD)” value (Caki-1 cells; Day 52, 10 mg/kg QD) was 1538±1070 mm^3, the IC50 (RSV; [6]) was 250 nM and the IC90 (RSV; [6]) was ≥ 160 nM. The “Activity against respiratory syncytial virus (RSV)” value (RSV; in words) was “potent activity”, the IC50 (HCV genotype 1b replicon) was 1 nM and the IC50 (HCV genotype 1b replicon; read-out: average IC50) was 36 nM. For the same compound, the IC50 (Dengue 2; Dengue virus, Vero C1008, Dengue 2, (+) RNA, Vero E6, CPE protection) was > 1000 nM, the IC90 (Dengue 2; Dengue virus, Vero C1008, Dengue 2, Vero E6, CPE protection) was > 1000 nM and the Activity against dengue (Dengue 2; at the doses tested, in words) was “inactive”. The “Effect on protein expression (FIG. 8)” value [2] was “dose-dependent and depended on the RCC line used”, the CC50 (Vero E6 cells; Dengue 2 assay line) was 700 nM and the CC50 (Vero E6 cells; Vaccinia assay line) was 83 nM. The “Clinical outcome (FIG. 22)” value (cancer in patients; patient having cholangiocarcinoma, after four previous therapeutic modalities) was “stabilization for a tumor marker”, the “Clinical outcome (FIG. 21)” value (cancer in patients; patient having chondrosarcoma, after one previous therapeutic modality) was “stabilization and reduction in a number of clinical parameters and tumor markers” and the “Clinical outcome (FIG. 20)” value (cancer in patients; patient having melanoma, after two previous therapeutic modalities) was “stabilization and reduction in a number of clinical parameters and tumor markers”. For the same compound, the “Clinical outcome (FIG. 19)” value (cancer in patients; patient having thyroid cancer, after three previous therapeutic modalities) was “stabilization and reduction in a number of clinical parameters and tumor markers”, the IC50 (HSV-1; Human alphaherpesvirus 1, HSV-1, DNA, Vero, CPE protection) was > 1000 nM and the IC90 (HSV-1; Human alphaherpesvirus 1, HSV-1, Vero, CPE protection) was > 1000 nM. For the same compound, the “Inhibition of herpes simplex virus-1 (HSV-1)” value (HSV-1; at the doses tested, in words) was “did not inhibit”, the “Survival of treated mice” value ([3]; all mice) was “survived until sacrificed” and the “Body weight change from initial body weight” value [3] was “did not lose weight”. For the same compound, the Inhibition of adenovirus (Adenovirus; at the doses tested, in words) was “did not inhibit”, the IC50 (Adenovirus; unidentified adenovirus, Adenovirus, DNA, HeLa, CPE protection) was > 1000 nM and the IC90 (Adenovirus; unidentified adenovirus, Adenovirus, HeLa, CPE protection) was > 1000 nM. For the same compound, the CC50 (MDCK cells) was > 1000 nM, the “Median time for tumors to reach 1000 mm^3” value (786-O cells; Compound #10 10 mg/kg QD PO, sunitinib 75 mg/kg QD PO, rapamycin 15 mg/kg PO, time on study used if not reached) was 71 days and the “Tumor size (mean±SD)” value (786-O cells; Day 57, 10 mg/kg QD) was 945±408 mm^3. For the same compound, the “Tumors smaller than those in vehicle-treated mice” value (786-O cells; Day 57, Compound #10 10 mg/kg QD PO, sunitinib 75 mg/kg QD PO, rapamycin 15 mg/kg PO) was 34%, the “Tumor size (mean±SD)” value (786-O cells; Day 88, 10 mg/kg QD) was 1569±671 mm^3 and the “Cure (tumor size <60 mm^3, not measurable)” value (786-O cells; Mouse 2-10, 10 mg/kg, in words) was “cured”. The Blood-brain barrier penetration [4] was “penetrates the blood-brain barrier”, the CC50 (HeLa cells) was > 1000 nM and the “Body weight loss from Day 0” value ([5]; Day 8 and Day 14) was 2.2%. The “Survival of treated mice” value ([5]; all mice, in words) was “survived until sacrificed”, the “Body weight change from initial body weight” value ([5]; in words) was “transiently lost weight” and the IC50 (Parainfluenza; Parainfluenza, (−) RNA, Vero, CPE protection) was 29 nM. The IC90 (Parainfluenza; Parainfluenza, Vero, CPE protection) was 44 nM, the “Activity against parainfluenza virus” value (Parainfluenza; in words) was “potent activity” and the IC50 (PV strain Mahoney; Enterovirus C, HeLa) was 0.57 nM. For the same compound, the IC90 (PV strain Mahoney; Enterovirus C, HeLa) was 2.8 nM, the IC50 (PV strain Mahoney; Enterovirus C, HeLa, read-out: average IC50) was 0.6 nM and the “decrease in activity when added at the time of infection” value (PV strain Mahoney; infected HeLa cells) was 65 fold. The IC50 (HCV genotype 2a replicon) was < 3 nM, the IC50 (Yellow Fever; Yellow fever virus, HeLa) was > 1000 nM and the IC90 (Yellow Fever; Yellow fever virus, HeLa) was > 1000 nM. The “Activity against yellow fever” value (Yellow Fever; at the doses tested, in words) was “inactive”, the CC50 (MT-2 cells) was 4.1 nM and the IC50 (Vaccinia) was 40 nM. For the same compound, the IC90 (Vaccinia) was 80 nM.

From patent US11613538B2, “Method of inhibiting or reducing a viral infection” (PTC Therapeutics, Inc., priority 2009, dated 2023)
